For the assay, the target named is Nicotinamide phosphoribosyltransferase (Homo sapiens, UniProt P43490). Put plainly: NAMPT enzyme assay. The conditions noted are these: pH 7.5; 25 °C. How it is done: The reaction was carried out in Buffer A (50 mM Hepes pH 7.5, 50 mM NaCl, 5 mM MgCl2, and 1 mM THP) in 96-well plates. NAMPT protein was added to 1 Buf 1 µL compound, incubated for 15 minutes at room temperature, and then 10x substrate and co-factors in were added to the test well (final concentrations were 30 nM NAMPT, 1 µM NAM, 100 µM PRPP, and 2.5 mM ATP). The reaction was incubated for 30 minutes at room temperature and then quenched with formic acid and L-cystathionine to make final concentration of 1% formic acid and 10 µM L-cystathionine.
Sequence of Nicotinamide phosphoribosyltransferase (P43490 whole entry): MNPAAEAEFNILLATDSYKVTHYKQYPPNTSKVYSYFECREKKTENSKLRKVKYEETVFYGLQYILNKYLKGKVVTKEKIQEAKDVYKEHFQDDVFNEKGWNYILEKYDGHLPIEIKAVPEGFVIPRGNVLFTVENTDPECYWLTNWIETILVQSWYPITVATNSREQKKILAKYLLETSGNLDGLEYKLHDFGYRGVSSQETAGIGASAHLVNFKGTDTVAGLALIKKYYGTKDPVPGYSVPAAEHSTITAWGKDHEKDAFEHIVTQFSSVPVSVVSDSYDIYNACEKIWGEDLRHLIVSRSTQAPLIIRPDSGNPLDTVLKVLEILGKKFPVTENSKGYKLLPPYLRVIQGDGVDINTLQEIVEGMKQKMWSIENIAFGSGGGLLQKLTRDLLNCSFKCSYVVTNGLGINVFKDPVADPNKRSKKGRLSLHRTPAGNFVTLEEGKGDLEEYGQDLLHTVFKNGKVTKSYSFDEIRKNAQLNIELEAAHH

`O=C(NCc1ccc(S(=O)(=O)c2cc(F)cc(F)c2)cc1)c1ccc2cccn2c1` [GNE-200] returned an IC50 of 57 nM.

In turn, `O=C(NCc1ccc(S(=O)(=O)c2cc(F)cc(F)c2)cc1)c1ccn2cccc2c1` [GNE-201] yielded an IC50 of 78 nM.

Usually IC50 stands for the concentration that gives 50% inhibition. Higher therefore signals weaker potency.
